Results: patent US8546376B2, “Pharmaceutical compounds” (Almac Discovery Limited, priority 2009, dated 2013)
pIC50: −log10 of the molar value.

Legend:
Type in all cases: biochemical
AKT3 = biological target: T1, AKT3 (Homo sapiens, UniProt Q9Y243); test: AKT Kinase Assay (IMAP fluorescent polarisation) vs AKT3; settings: activated AKT3, FAM Crosstide substrate
T1 construct: purchased SignalChem
Method: (§1) Testing of the compounds was performed using an AKT Kinase Assay:
(§2) Activated AKT isoforms 1, 2 and 3 were assayed utilising a 5′ FAM Crosstide (Seq. GRPRTSSFAEG-OH). The extent of kinase phosphorylation was determined by fluorescent polarisation using IMAP progressive binding reagent, which introduces binding beads which allow the reagent to specifically bind to phosphate residues via covalent co-ordination complex bonds.
(§3) iMAP binding solution stops Crosstide/kinase interaction and specifically binds phosphorylated substrates. The degree of phosphorylation is determined by fluorescent polarisation (excitation 485 nm; emission 528 nm) or the reduction in speed of rotation of the excited substrate.
(§4) The following materials were used in the assay: • a) Activated AKT isoforms (SignalChem.) dissolved in Complete Reaction buffer at a pre-determined concentration selected so that the assay was carried out in the linear range. • b) AKT substrate peptide: FAM Crosstide (R7110) Molecular Devices, diluted in complete reaction buffer. • c) iMAP Progressive Screening Express Kit (R8127) Molecular Devices • d) Complete Reaction Buffer containing 0.1% BSA, 10 mM Tris-HCl, 10 mM MgCl2, 0.05% NaN3 and 0.01% phosphate free BSA, 1 mM DTT • e) Progressive Binding Solution containing 75% Buffer A, 25% Buffer B and low volume Binding Reagent which contains the binding entity for the assay • f) ATP diluted in complete reaction buffer • g) Black polystyrene 384 well assay plates (Nunc). • h) Biotek Synergy 4 Hybrid Plate reader.
(§5) 5 μl of test compound was dissolved in DMSO (Sigma Aldrich) and serially diluted in complete reaction buffer to give a fourteen point half log dose response and plated into 384 well black plates. The compound was incubated at room temperature with activated AKT isoform (5 μl) at the pre-determined concentration, for 45 minutes.
(§6) 2.5 μl of ATP solution mixed with 2.5 μl of AKT substrate peptide (FAM Crosstide (R7110) Molecular Devices) were dispensed into each well and the plate centrifuged at 1000 rpm for 20 seconds to ensure homogenous mixing of reagents. The reaction mix was incubated in the dark for one hour at room temperature.
(§7) The kinase reaction was stopped by the addition of Progressive Binding Solution and the mixture allowed to equilibrate for one hour in the dark, at room temperature.
(§8) The fluorescent polarisation generated in each well was determined using a […] Synergy 4 Hybrid plate reader. In brief, each reaction solution was excited at 485 nm with the emission measured at 528 nm in both the parallel and perpendicular pathway.
(§9) The polarisation value generated in each well was calculated by Gen5 software (Biotek) and the % inhibition of kinase activity compared to vehicle control was calculated via GraphPad Prism. IC50 values for each compound were calculated by non-linear regression analysis using Prism software.
(§10) All plates were internally controlled by two methods. Firstly, by calculating the signal:noise ratio; based on kinase polarisation without inhibitor and polarisation generated by complete reaction buffer in the absence of activated kinase. Secondly by determining IC50 values generated by known inhibitors of the AKT isoforms.

AKT1 = biological target: T2, AKT1 (Homo sapiens, UniProt P31749); test: AKT Kinase Assay (IMAP fluorescent polarisation) vs AKT1; settings: activated AKT1, FAM Crosstide substrate
T2 construct: purchased SignalChem
T2 sequence (P31749 whole entry): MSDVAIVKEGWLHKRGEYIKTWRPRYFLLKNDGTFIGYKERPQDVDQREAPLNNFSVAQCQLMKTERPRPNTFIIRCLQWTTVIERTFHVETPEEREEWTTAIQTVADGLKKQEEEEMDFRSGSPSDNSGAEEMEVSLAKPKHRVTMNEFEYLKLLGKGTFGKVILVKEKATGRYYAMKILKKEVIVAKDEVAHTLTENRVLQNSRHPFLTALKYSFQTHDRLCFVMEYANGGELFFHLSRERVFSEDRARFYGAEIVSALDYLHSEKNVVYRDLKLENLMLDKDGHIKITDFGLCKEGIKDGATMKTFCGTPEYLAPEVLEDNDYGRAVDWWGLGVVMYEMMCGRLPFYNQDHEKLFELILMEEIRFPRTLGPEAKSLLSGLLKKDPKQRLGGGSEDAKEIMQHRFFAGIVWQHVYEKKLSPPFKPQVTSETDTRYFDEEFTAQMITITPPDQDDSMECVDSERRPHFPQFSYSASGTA
Method: as §1, §2, §3, §4, §5, §6, §7, §8, §9, §10

AKT2 = biological target: T3, AKT2 (Homo sapiens, UniProt P31751); test: AKT Kinase Assay (IMAP fluorescent polarisation) vs AKT2; settings: activated AKT2, FAM Crosstide substrate
T3 construct: purchased SignalChem
T3 sequence (P31751 whole entry): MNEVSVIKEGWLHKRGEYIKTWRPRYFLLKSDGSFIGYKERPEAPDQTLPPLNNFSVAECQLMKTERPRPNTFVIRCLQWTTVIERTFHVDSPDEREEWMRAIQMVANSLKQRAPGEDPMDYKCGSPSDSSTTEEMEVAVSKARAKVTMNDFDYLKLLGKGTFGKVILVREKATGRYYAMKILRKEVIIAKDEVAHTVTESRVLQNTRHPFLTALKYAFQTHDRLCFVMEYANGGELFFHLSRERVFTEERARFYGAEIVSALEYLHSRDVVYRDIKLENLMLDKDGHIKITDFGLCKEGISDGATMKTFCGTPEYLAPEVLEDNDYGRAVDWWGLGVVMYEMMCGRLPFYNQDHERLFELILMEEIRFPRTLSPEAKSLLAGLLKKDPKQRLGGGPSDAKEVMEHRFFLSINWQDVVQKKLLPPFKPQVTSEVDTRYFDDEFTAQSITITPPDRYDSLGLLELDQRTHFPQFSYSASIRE
Method: as §1, §2, §3, §4, §5, §6, §7, §8, §9, §10

T1 sequence (Q9Y243 whole entry): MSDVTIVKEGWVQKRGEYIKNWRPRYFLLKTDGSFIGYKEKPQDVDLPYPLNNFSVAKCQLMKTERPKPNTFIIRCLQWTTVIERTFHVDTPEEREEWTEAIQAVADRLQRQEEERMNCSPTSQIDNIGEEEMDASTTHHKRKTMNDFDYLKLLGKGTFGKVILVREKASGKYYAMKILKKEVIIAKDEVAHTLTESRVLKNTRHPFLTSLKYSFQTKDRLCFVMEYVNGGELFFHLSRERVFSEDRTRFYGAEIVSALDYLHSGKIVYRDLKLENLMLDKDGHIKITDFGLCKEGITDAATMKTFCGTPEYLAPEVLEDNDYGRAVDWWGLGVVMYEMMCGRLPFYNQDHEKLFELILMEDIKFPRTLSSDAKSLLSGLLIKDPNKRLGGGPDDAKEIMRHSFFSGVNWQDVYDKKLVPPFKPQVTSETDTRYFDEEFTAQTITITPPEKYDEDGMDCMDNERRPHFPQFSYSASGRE

SMILES | pIC50 (AKT3) | pIC50 (AKT1) | pIC50 (AKT2)
NC1(c2ccc(-c3c(-c4ccccc4)oc4ccc(F)cc4c3=O)cc2)CCC1 [Example 1, 3-[4-(1-Amino-cyclobutyl)-phenyl]-6-fluoro-2-phenyl-chromen-4-one] | < 5.00 | 5.00 to 6.00 | 5.00 to 6.00
NC1(c2ccc(-c3c(-c4ccccc4)oc4c(F)cccc4c3=O)cc2)CCC1 [Example 2, 3-[4-(1-Amino-cyclobutyl)-phenyl]-8-fluoro-2-phenyl-chromen-4-one] | < 5.00 | ≥ 6.00 | 5.00 to 6.00
NC1(c2ccc(-c3c(-c4ccccc4)oc4cccc(F)c4c3=O)cc2)CCC1 [Example 3, 3-[4-(1-Amino-cyclobutyl)-phenyl]-5-fluoro-2-phenyl-chromen-4-one] | < 5.00 | 5.00 to 6.00 | 5.00 to 6.00
COc1ccc2oc(-c3ccccc3)c(-c3ccc(C4(N)CCC4)cc3)c(=O)c2c1 [Example 5, 3-[4-(1-Amino-cyclobutyl)-phenyl]-6-methoxy-2-phenyl-chromen-4-one] | < 5.00 | 5.00 to 6.00 | 5.00 to 6.00
COc1cc2c(=O)c(-c3ccc(C4(N)CCC4)cc3)c(-c3ccccc3)oc2cc1C [Example 6, 3-[4-(1-Amino-cyclobutyl)-phenyl]-6-methoxy-7-methyl-2-phenyl-chromen-4-one] | < 5.00 | < 5.00 | 5.00 to 6.00
COc1cc2oc(-c3ccccc3)c(-c3ccc(C4(N)CCC4)cc3)c(=O)c2cc1C [Example 7, 3-[4-(1-Amino-cyclobutyl)-phenyl]-7-methoxy-6-methyl-2-phenyl-chromen-4-one] | < 5.00 | 5.00 to 6.00 | 5.00 to 6.00
NC1(c2ccc(-c3c(-c4ccccc4)oc4cc5c(cc4c3=O)OCCO5)cc2)CCC1 [Example 8, 7-[4-(1-Amino-cyclobutyl)-phenyl]-6-Phenyl-2,3-dihydro-1,4,5-trioxa-anthracen-8-one] | < 5.00 | 5.00 to 6.00 | 5.00 to 6.00
COc1ccc2c(=O)c(-c3ccc(C4(N)CCC4)cc3)c(-c3ccccc3)oc2c1Br [Example 9, 3-[4-(1-Amino-cyclobutyl)-phenyl]-8-bromo-7-methoxy-2-phenyl-chromen-4-one] | 5.00 to 6.00 | ≥ 6.00 | ≥ 6.00
COc1cc2oc(-c3ccccc3)c(-c3ccc(C4(N)CCC4)cc3)c(=O)c2cc1C(N)=O [Example 10, 3-[4-(1-Amino-cyclobutyl)-phenyl]-7-methoxy-4-oxo-2-phenyl-4H-chromene-6-carboxylic acid amide] | 5.00 to 6.00 | 5.00 to 6.00 | ≥ 6.00
COc1cc2oc(-c3ccccc3)c(-c3ccc(C4(N)CCC4)cc3)c(=O)c2cc1C#N [Example 11, 3-[4-(1-Amino-cyclobutyl)-phenyl]-7-methoxy-4-oxo-2-phenyl-4H-chromene-6-carbonitrile] | < 5.00 | 5.00 to 6.00 | 5.00 to 6.00
COc1ccc2c(=O)c(-c3ccc(C4(N)CCC4)cc3)c(-c3ccccc3)oc2c1C#N [Example 12, 3-[4-(1-Amino-cyclobutyl)-phenyl]-7-methoxy-4-oxo-2-phenyl-4H-chromene-8-carbonitrile] | 5.00 to 6.00 | 5.00 to 6.00 | ≥ 6.00
NC1(c2ccc(-c3c(-c4ccccc4)oc4cc(Br)ccc4c3=O)cc2)CCC1 [Example 13, 3-[4-(1-Amino-cyclobutyl)-phenyl]-2-phenyl-7-bromo-chromen-4-one] | < 5.00 | 5.00 to 6.00 | 5.00 to 6.00
COc1ccc2c(=O)c(-c3ccc(C4(N)CCC4)cc3)c(-c3ccccc3)oc2c1 [Example 14] | < 5.00 | 5.00 to 6.00 | 5.00 to 6.00
COc1cc2oc(-c3ccccc3)c(-c3ccc(C4(N)CCC4)cc3)c(=O)c2cc1OC [Example 15, 3-[4-(1-Amino-cyclobutyl)-phenyl]-6,7-dimethoxy-2-phenyl-chromen-4-one] | 5.00 to 6.00 | 5.00 to 6.00 | ≥ 6.00

Other lines, results leading:

pIC50 (AKT3) | pIC50 (AKT1) | pIC50 (AKT2) | SMILES
5.00 to 6.00 | 5.00 to 6.00 | 5.00 to 6.00 | COc1cccc2c(=O)c(-c3ccc(C4(N)CCC4)cc3)c(-c3ccccc3)oc12 [Example 16, 3-[4-(1-Amino-cyclobutyl)-phenyl]-8-methoxy-2-phenyl-chromen-4-one]
< 5.00 | < 5.00 | 5.00 to 6.00 | NC1(c2ccc(-c3c(-c4ccccc4)oc4cc(-c5ccn[nH]5)ccc4c3=O)cc2)CCC1 [Example 17]
< 5.00 | < 5.00 | 5.00 to 6.00 | NC(=O)c1ccc2c(=O)c(-c3ccc(C4(N)CCC4)cc3)c(-c3ccccc3)oc2c1 [Example 18, 3-[4-(1-Amino-cyclobutyl)-phenyl]-4-oxo-2-phenyl-4H-chromene-7-carboxylic acid amide]
5.00 to 6.00 | 5.00 to 6.00 | 5.00 to 6.00 | NC1(c2ccc(-c3c(-c4ccccc4)oc4ccc(Br)cc4c3=O)cc2)CCC1 [Example 19, 3-[4-(1-Amino-cyclobutyl)-phenyl]-6-bromo-2-phenyl-chromen-4-one]
< 5.00 | 5.00 to 6.00 | 5.00 to 6.00 | N#Cc1ccc2oc(-c3ccccc3)c(-c3ccc(C4(N)CCC4)cc3)c(=O)c2c1 [Example 21, 3-[4-(1-Amino-cyclobutyl)-phenyl]-4-oxo-2-phenyl-4H-chromene-6-carbonitrile]
< 5.00 | 5.00 to 6.00 | 5.00 to 6.00 | NC1(c2ccc(-c3c(-c4ccccc4)oc4ccc(-n5ccnc5)cc4c3=O)cc2)CCC1 [Example 22, 3-[4-(1-Amino-cyclobutyl)-phenyl]-6-imidazol-1-yl-2-phenyl-chromen-4-one]
< 5.00 | 5.00 to 6.00 | 5.00 to 6.00 | NC1(c2ccc(-c3c(-c4ccccc4)oc4cc(F)c(F)cc4c3=O)cc2)CCC1 [Example 23, 3-[4-(1-Amino-cyclobutyl)-phenyl]-6,7-difluoro-2-phenyl-chromen-4-one]
< 5.00 | < 5.00 | 5.00 to 6.00 | NC1(c2ccc(-c3c(-c4ccccc4)oc4cc(OC(F)(F)F)ccc4c3=O)cc2)CCC1 [Example 24, 3-[4-(1-Amino-cyclobutyl)-phenyl]-2-phenyl-7-trifluoromethoxy-chromen-4-one]
< 5.00 | < 5.00 | 5.00 to 6.00 | NC1(c2ccc(-c3c(-c4ccccc4)oc4ccc(OC(F)(F)F)cc4c3=O)cc2)CCC1 [Example 25, 3-[4-(1-Amino-cyclobutyl)-phenyl]-2-phenyl-6-trifluoromethoxy-chromen-4-one]
< 5.00 | < 5.00 | 5.00 to 6.00 | COc1cc2c(=O)c(-c3ccc(C4(N)CCC4)cc3)c(-c3ccccc3)oc2cc1Br [Example 26, 3-[4-(1-Amino-cyclobutyl)-phenyl]-7-bromo-6-methoxy-2-phenyl-chromen-4-one]
< 5.00 | < 5.00 | 5.00 to 6.00 | COc1cc2oc(-c3ccccc3)c(-c3ccc(C4(N)CCC4)cc3)c(=O)c2cc1Br [Example 27, 3-[4-(1-Amino-cyclobutyl)-phenyl]-6-bromo-7-methoxy-2-phenyl-chromen-4-one]
< 5.00 | < 5.00 | 5.00 to 6.00 | COc1cc2c(=O)c(-c3ccc(C4(N)CCC4)cc3)c(-c3ccccc3)oc2cc1-c1ccn[nH]1 [Example 28, 3-[4-(1-Amino-cyclobutyl)-phenyl]-6-methoxy-2-phenyl-7-(2H-pyrazol-3yl)-chromen-4-one]
< 5.00 | 5.00 to 6.00 | ≥ 6.00 | COc1cc2c(=O)c(-c3ccc(C4(N)CCC4)cc3)c(-c3ccccc3)oc2cc1C(N)=O [Example 29, 3-[4-(1-Amino-cyclobutyl)-phenyl]-6-methoxy-4-oxo-2-phenyl-4H-chromene-7-carboxylic acid amide]
5.00 to 6.00 | < 5.00 | 5.00 to 6.00 | COc1cc2c(=O)c(-c3ccc(C4(N)CCC4)cc3)c(-c3ccccc3)oc2cc1C#N [Example 30, 3-[4-(1-Amino-cyclobutyl)-phenyl]-6-methoxy-4-oxo-2-phenyl-4H-chromene-7-carbonitrile]
